For experiment [1], the system named is ZO1, Slug, Snail, N-cadherin, Vimentin mRNA in H460 cells. Kind of experiment: mRNA of EMT markers by Real-time qPCR. It counts as cell-based, human. The following applies: H460, 1 μM and 2.5 µM. The protocol: Therefore, the effect of DH_31 on targeting, the DNA-binding domain of STAT3, may represent an impact on downstream targets at the transcriptional level (Figure 8A). The expression levels of ZO1, Slug, Snail, N-cadherin, and Vimentin were analyzed using Real-time qPCR.
Quantitative Real-time PCR was performed to determine the effect of DH_31 on mRNA levels of STAT3 and EMT-related genes. H460 cells (4.0 × 10^5 cells per well) were seeded in 6-well plates. Following overnight incubation, the cells were treated with different concentrations of DH_31 (0–2.5 μM)) for 8 h at 37 °C. After treatment, total RNA was isolated using the RNeasy kit (Qiagen, Germany) and subsequently subjected to cDNA synthesis using qScript cDNA Supermix (Quanta bio, Beverly, MA, USA), following the manufacturers’ protocols. Real-time qPCR was performed using Luna Universal qPCR Master Mix (NEB, Ipswich, MA, USA) and the CFX 96 Real-time PCR system (Bio-Rad, Hercules, CA, USA). The expression of each cDNA was normalized to that of β-actin, and the comparative Ct method was used to obtain relative expression levels. The primers used for Real-time PCR are shown in the in the Supporting Information, Table S1. The list of primers.
(In general: Real-time PCR tracks product formation cycle by cycle.)

Experiment [2] addresses T1, STAT3 (Homo sapiens, UniProt P40763).
T1 construct: endogenous in cells; host or cells: NCI-H460 (ATCC HTB-177)
The experiment is described as follows: STAT3 immunofluorescence and confocal microscopy. It counts as cell-based. The settings on record: H460, 2.5 µM, 24 h (p < 0.001). How it is done:
To explore whether DH_31 could suppress STAT3, H460 cells were treated with 1 and 2.5 μM of DH_31 for 24 h. Immunofluorescence and confocal microscopy were performed to visualize STAT3 expression.
Immunofluorescence staining and confocal microscopy were conducted to visualize the subcellular localization and spatial distribution of specific proteins. H460 cells (1.0 × 10^4 cells per well) were seeded in 96-well plates. Following overnight incubation, the cells were treated with different concentrations of DH_31 (0–2.5 μM) for 24 h at 37 °C. After treatment, the cells were permeabilized with 0.5% Triton-X in PBS for 5 min, followed by the blocking of non-specific proteins with 10% FBS in 0.1% Triton-X PBS for 1 h at room temperature. Subsequently, the cells were exposed to primary antibodies (STAT3, Slug, Snail, Vimentin, N-cadherin, ZO1, and ZEB1) and incubated at 4 °C overnight. The cells were then incubated with Alexa Fluor 488- or 594-conjugated secondary antibodies and Hoechst 33342 for 1 h at room temperature. After washing with PBS, the cells were covered with 50% glycerol. The images were captured by confocal microscopy (Zeiss, Jena, Germany). The fluorescence intensity was measured using ImageJ™ software (Image J 1.52a, Rasband, W., National Institutes of Health, Bethesda, MD, USA).

Experiment [3] deals with detached H460 cells. The experiment is described as follows: Anoikis assay (viability under detachment, MTT). In kind it is cell-based, human. The following applies: H460, 1 and 2.5 μM, at 12 h (p < 0.01) and 24 h (p < 0.001). How it is done:
Anoikis, a detachment-induced apoptosis, is a mechanism to prevent metastasis, so resistance to anoikis enhances the potential of metastasis. To confirm that DH_31 induces anoikis, the detached H460 cells were treated with 1 and 2.5 μM of DH_31 for 6, 12, and 24 h.
MTT assay was conducted to ascertain cell viability after treatment with DH-31 under detachment conditions. H292 and H460 cells (5.0 × 10^3 cells per well) were seeded in ultra-low attachment 96-well plates and treated with different concentrations of DH_31 (0–2.5 μM) at 37 °C. At 0, 6, 12, and 24 h of incubation, the cell suspensions were transferred onto regular cell culture plates in growth medium to facilitate attachment. After 3 h, images of cells that survived anoikis and recovered their adherent growth ability were captured with a 10 × objective using an inverted microscope (Olympus IX51 with DP70; OlympusbAmerica Inc., Center valley, PA, USA). Then, the medium in each well was removed and replaced with 100 µL of MTT solution. Cell viability was assessed using MTT assay, following the manufacturers’ protocols. Anoikis resistance was calculated as a percentage compared with the control.

The target in experiment [4] is T2, STAT3–ubiquitin complex (Homo sapiens, UniProt P40763).
T2 construct: endogenous in cells; host or cells: NCI-H460 (ATCC HTB-177)
T2 sequence (P40763 2-770 limits assumed, one chain of several): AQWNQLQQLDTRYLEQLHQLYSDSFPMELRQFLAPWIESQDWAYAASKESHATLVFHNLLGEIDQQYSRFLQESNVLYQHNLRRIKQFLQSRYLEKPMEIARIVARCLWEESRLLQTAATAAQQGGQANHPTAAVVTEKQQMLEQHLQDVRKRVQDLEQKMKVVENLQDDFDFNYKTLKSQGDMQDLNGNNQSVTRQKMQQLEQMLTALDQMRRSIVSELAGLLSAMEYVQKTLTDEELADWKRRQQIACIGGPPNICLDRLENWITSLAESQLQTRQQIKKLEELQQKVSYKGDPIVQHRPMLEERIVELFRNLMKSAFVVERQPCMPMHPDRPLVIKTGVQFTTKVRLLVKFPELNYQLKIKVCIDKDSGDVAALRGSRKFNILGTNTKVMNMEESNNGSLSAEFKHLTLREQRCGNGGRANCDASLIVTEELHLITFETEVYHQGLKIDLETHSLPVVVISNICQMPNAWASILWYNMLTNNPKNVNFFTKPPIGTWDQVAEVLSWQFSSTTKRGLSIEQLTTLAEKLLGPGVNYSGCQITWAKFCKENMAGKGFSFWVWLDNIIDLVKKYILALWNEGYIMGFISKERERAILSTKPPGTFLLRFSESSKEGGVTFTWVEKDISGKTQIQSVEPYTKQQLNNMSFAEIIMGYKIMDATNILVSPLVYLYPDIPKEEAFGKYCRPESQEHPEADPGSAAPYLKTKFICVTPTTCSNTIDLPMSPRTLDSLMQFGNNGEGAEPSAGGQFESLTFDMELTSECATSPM
The experiment is described as follows: Immunoprecipitation and Western blot of STAT3–ubiquitin complex. It counts as cell-based. The settings on record: H460, 2.5 µM, 6 h, MG132 10 µM pretreatment, vs untreated cells. The protocol:
(§1) To explore whether the reduction in total STAT3 protein after DH_31 treatments (as shown in Figure 5B–E) occurs at the mRNA or protein levels, we first investigated mRNA levels using Real-time qPCR. […] To evaluate whether DH_31 affects STAT3 stability, pretreatment with MG132, a potent selective proteasome inhibitor, was performed. H460 cells were pretreated with or without MG132 (10 μM) for 1 h and then cells were either treated with DH_31 for 6 h or left untreated. […] The proteasome can recognize and degrade protein targets that are conjugated by single or poly-ubiquitin molecules. To investigate the ubiquitination level of STAT3 with DH_31 treatments, the ubiquitination level was evaluated using immunoprecipitation and Western blot analysis of the STAT3–ubiquitin complex in the lung cancer cells treated with DH_31 and in untreated cells.
Immunoprecipitation assay was performed to investigate ubiquitin–proteasomal degradation, shedding light on the regulatory mechanisms involved. H460 cells (4.0 × 10^5 cells per well) were seeded in 6-well plates. Following overnight incubation, the cells were pretreated with 10 μM of a proteasome inhibitor, MG132, for 1 h to prevent proteasomal degradation, and then were treated with different concentrations of DH_31 (0–2.5 μM) for 6 h. After treatment, the cells were lysed as described above. […]
For orientation: Immunoblotting shows a protein as a band on a membrane.

Experiment [5] has as its target T1, STAT3. The experiment is described as follows: STAT3 proteasomal degradation, Western blot with or without MG132. It counts as cell-based. The following applies: H460, 1 and 2.5 µM, 6 h, without MG132 (p < 0.05). The protocol: as §1
Immunoprecipitation assay was performed to investigate ubiquitin–proteasomal degradation, shedding light on the regulatory mechanisms involved. H460 cells (4.0 × 10^5 cells per well) were seeded in 6-well plates. Following overnight incubation, the cells were pretreated with 10 μM of a proteasome inhibitor, MG132, for 1 h to prevent proteasomal degradation, and then were treated with different concentrations of DH_31 (0–2.5 μM) for 6 h. After treatment, the cells were lysed as described above. Immunoprecipitation was carried out using the Dynabeads™ Protein G Immunoprecipitation kit, following the manufacturers’ protocols. The magnetic beads were coated with the rabbit anti-STAT3, then incubated with whole-cell lysate and mixed gently overnight at 4 °C. After washing, the supernatant containing the antibody–antigen complex was used to perform Western blot analysis to detect the ubiquitinated STAT3 protein.

The structures appear in SMILES notation.

T1 sequence (P40763 whole entry): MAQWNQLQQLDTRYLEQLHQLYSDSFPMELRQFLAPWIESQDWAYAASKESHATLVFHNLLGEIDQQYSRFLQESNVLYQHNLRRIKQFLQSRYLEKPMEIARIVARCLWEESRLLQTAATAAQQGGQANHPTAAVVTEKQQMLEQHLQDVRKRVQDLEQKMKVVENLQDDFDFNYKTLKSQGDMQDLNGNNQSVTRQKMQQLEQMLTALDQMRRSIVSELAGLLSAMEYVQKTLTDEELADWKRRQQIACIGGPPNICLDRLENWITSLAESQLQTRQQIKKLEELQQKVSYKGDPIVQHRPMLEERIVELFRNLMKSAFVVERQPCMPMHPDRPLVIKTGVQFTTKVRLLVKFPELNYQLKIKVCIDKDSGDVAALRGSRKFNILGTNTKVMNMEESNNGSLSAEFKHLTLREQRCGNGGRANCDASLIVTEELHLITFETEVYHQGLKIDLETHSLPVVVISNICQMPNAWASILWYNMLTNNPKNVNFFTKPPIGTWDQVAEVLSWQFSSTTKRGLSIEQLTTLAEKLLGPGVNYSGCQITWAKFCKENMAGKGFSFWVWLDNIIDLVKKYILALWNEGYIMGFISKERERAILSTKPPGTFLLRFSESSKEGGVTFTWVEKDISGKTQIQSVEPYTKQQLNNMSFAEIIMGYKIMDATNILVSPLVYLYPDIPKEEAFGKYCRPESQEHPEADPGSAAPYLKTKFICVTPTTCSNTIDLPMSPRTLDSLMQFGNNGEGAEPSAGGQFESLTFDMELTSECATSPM

`COc1c(C)cc2c(c1O)[C@@H]1CN(Cc3ccc4ccccc4c3)[C@@H](C#N)[C@H](C2)N1C` [DH_31, (1R,4R,5S)-10-hydroxy-9-methoxy-8,11-dimethyl-3-(naphthalen-2-ylmethyl)-1,2,3,4,5,6-hexahydro-1,5-epiminobenzo[d]azocine-4-carbonitrile]: the “ZO1 mRNA expression” value in experiment [1] (8 h (p < 0.01)) is recorded as “significant increase”. In experiment [1] (8 h (p < 0.05)), the “N-cadherin mRNA expression” value is reported as “significant reduction”, the “Slug mRNA expression” value was “significant reduction”, the “Snail mRNA expression” value is on record as “significant reduction” and the “Vimentin mRNA expression” value was “significant reduction”. In addition, the “STAT3 expression (immunofluorescence)” value in experiment [2] is recorded as “significant reduction”. Further, the “cell viability of detached cells (anoikis)” value in experiment [3] is “significant decrease”. In addition, the “STAT3–ubiquitin formation” value in experiment [4] was “significantly enhanced”. Further, the “STAT3 protein levels (Western blot)” value in experiment [5] was “significantly reduced”.

(Values after article PMC11355573, “A New Renieramycin T Right-Half Analog as a Small Molecule Degrader of STAT3” (Marine Drugs, 2024).)
